# Source: US10703724B2, “Crystalline forms of {[5-(3-chlorophenyl)-3-hydroxypyridine-2-carbonyl] amino} acetic acid and processes for preparation thereof” (Crystal Pharmaceutical (Suzhou) Co., Ltd., priority 2016, dated 2020)
# Entries after “also recorded” stand apart in the source; their conditions may differ.
# Assays:
# [1] = Solubility in SGF (suspension rotated, filtrate concentration by HPLC); type: physicochemical; conditions: for Solubility in SGF: SGF (simulated gastric fluids); for solubility in SGF compared with Form A in WO2015073779: SGF at 1 h, 4 h and 24 h
# Experimental: Certain amount of Form CS1 in the present disclosure and Form A in WO2015073779 were weighted into vials and suspended in SGF (Simulated Gastric Fluids). The systems were rotated on the rotator at a rate of 25 r/min. After equilibrated for 1 h, 4 h and 24 h, the suspension was separated through 0.45 μm PTFE centrifugal filter and the filtrate was collected. The concentration of the filtrates was measured by HPLC.
# (§1) Certain amount of Form CS8 in the present disclosure and Form A in WO2015073779 was weighted into vials and then suspended in SGF (Simulated gastric fluids) and water. The systems were rotated on the rotator at a rate of 25 r/min. After equilibrated for 1 h, 4 h and 24 h, the suspension was separated through 0.45 μm PTFE centrifugal filter and the filtrate was collected. The concentration of the filtrates was measured by HPLC.
# [2] = Storage stability of the crystalline form (XRPD before and after storage); type: physicochemical; conditions: for Solid Form after storage: XRPD
# Experimental: Form CS1 in the present disclosure was stored under 25° C./60% RH and 40° C./75% RH for 1 month. The XRPD pattern was collected before and after storage, and the XRPD pattern overlay is depicted in FIG. 10.
# Accelerated experiment: Form CS2 was stored under 25° C./60% RH, 40° C./75% RH and 60° C./75% RH for 1 month. The XRPD pattern was collected before and after storage, and the overlay is depicted in FIG. 11.
# Form CS8 of the present disclosure was stored under 25° C./60% RH, 40° C./75% RH and 60° C./75% RH for 20 days.
# [3] = Mechanical stability experiment: manual grinding for 5 minutes in a mortar; type: physicochemical; conditions: XRPD
# Experimental: Mechanical stability experiment: Form CS2 was manually ground for 5 minutes in a mortar. The XRPD pattern collected before and after grinding is depicted in FIG. 12.
# [4] = Pressure stability: tableting under 3 KN, 7 KN and 14 KN, XRPD before and after; type: physicochemical; conditions: 7 KN and 14 KN pressure
# From the text: Form CS2 was compressed using an ENERPAC manual tablet press under 3 KN, 7 KN and 14 KN pressure with φ6 mm round tooling (to ensure isotropy of the tablet). XRPD pattern overlay depicted in FIG. 15 was collected by a […] Panalytical Empyrean X-ray diffractometer before and after tableting.
# [5] = Hygroscopicity by dynamic vapor sorption (DVS); type: physicochemical
# Experimental: Dynamic Vapor Sorption (DVS) was measured via an SMS (Surface Measurement Systems Ltd.) intrinsic DVS instrument. Its control software is DVS-Intrinsic control software, and its analysis software is DVS-Intrinsic Analysis software. Typical Parameters for DVS test are as follows: • Temperature: 25° C. • Gas and flow rate: N2, 200 mL/min • dm/dt: 0.002%/min • RH range: 0% RH to 95% RH
# Dynamic vapor sorption (DVS) was applied to test hygroscopicity of Form CS2 with 10 mg of sample.
# Dynamic vapor sorption (DVS) was applied to test hygroscopicity of Form CS8 with 10 mg of sample and the DVS curve is depicted in FIG. 14. The weight gain of Form CS8 under 80% RH is 0.06%, which means Form CS8 is non hygroscopic or almost non hygroscopic.
# Description and definition of hygroscopicity in the general principle 9103 of Chinese Pharmacopoeia: • deliquescent: Sufficient water is absorbed to form a liquid; • very hygroscopic: Increase in mass is equal to or greater than 15 percent; • hygroscopic: Increase in mass is less than 15 percent and equal to or greater than 2 percent; • slightly hygroscopic: Increase in mass is less than 2 percent and equal to or greater than 0.2 percent. • non hygroscopic or almost non hygroscopic: Increase in mass is less than 0.2%.
# [6] = Stability comparison experiment: slurry in water at room temperature, about 40 days; type: physicochemical
# Experimental: Stability comparison experiment: about 4 mg of Form CS2 and Form A in WO2015073779 was weighted into a 1.5 mL glass vial and 1.0 mL of water was added into the vial. The solid form of the initial sample was tested. After stirring at a rate of 500 r/min at room temperature for about 40 days, the solid form of the sample was tested again. The XRPD pattern overlay is depicted in FIG. 13.
# [7] = Solubility in water (suspension rotated, filtrate concentration by HPLC); type: physicochemical
# Experimental: as §1
# [8] = as disclosed in WO2015073779; cited from earlier work
# [9] = 25° C./60% RH, 40° C./75% RH and 60° C./75% RH
Compound,Solubility in SGF ([1]; equilibrated 1 h) [µg/mL],Solubility in SGF ([1]; equilibrated 4 h) [µg/mL],Solubility in SGF ([1]; equilibrated 24 h) [µg/mL],solubility in SGF compared with Form A in WO2015073779 [1],"Solid Form after storage ([2]; 25° C./60% RH, 1 month)","Solid Form after storage ([2]; 40° C./75% RH, 1 month)","time the form keeps stable [2, 9]",also measured
"O=C(O)CNC(=O)c1ncc(-c2cccc(Cl)c2)cc1O [Form CS1, {[5-(3-chlorophenyl)-3-hydroxypyridine-2-carbonyl]amino} acetic acid]",23,26,19,higher,"Form CS1, no form change","Form CS1, no form change",,time the form keeps stable ([2]; 25° C./60% RH and 40° C./75% RH): at least 1 month
"O=C(O)CNC(=O)c1ncc(-c2cccc(Cl)c2)cc1O [Form CS2, {[5-(3-chlorophenyl)-3-hydroxypyridine-2-carbonyl]amino} acetic acid]",,,,,"Form CS2, no form change","Form CS2, no form change",at least 1 month,"crystal structure after manual grinding [3]: doesn't change; form change after tableting [4]: no form change; also recorded: stable; weight gain from 40% RH to 80% RH ([5]; DVS, 25° C., 10 mg of sample): 0.11%; hygroscopicity (in words) ([5]; from weight gain 40% RH to 80% RH): low hygroscopic; stability in water compared with Form A in WO2015073779 ([6]; slurry in water): more stable; Solid Form after storage ([2]; 25° C./60% RH, 20 days): Form CS8, no form change; Solid Form after storage ([2]; 40° C./75% RH, 20 days): Form CS8, no form change; Solid Form after storage ([2]; 60° C./75% RH, 1 month): Form CS2, no form change; Solid Form after storage ([2]; 60° C./75% RH, 20 days): Form CS8, no form change"
"O=C(O)CNC(=O)c1ncc(-c2cccc(Cl)c2)cc1O [Form CS8, {[5-(3-chlorophenyl)-3-hydroxypyridine-2-carbonyl]amino} acetic acid]",20,22,33,higher,,,at least 20 days,"weight gain at 90% RH ([5]; DVS, 25° C.): 0.08%; weight gain at 80% RH ([5]; DVS, 25° C., 10 mg of sample): 0.06%; hygroscopicity class (Chinese Pharmacopoeia general principle 9103) ([5]; from weight gain under 80% RH): non hygroscopic or almost non hygroscopic (Increase in mass is less than 0.2%); solubility in water compared with Form A in WO2015073779 [7]: higher"
"O=C(O)CNC(=O)c1ncc(-c2cccc(Cl)c2)cc1O [Form A in WO2015073779, {[5-(3-chlorophenyl)-3-hydroxypyridine-2-carbonyl]amino} acetic acid, reference compound]",8.5,8.6,3.8,,,,,"solid form after slurry in water ([6]; water, 500 r/min, room temperature, XRPD): almost completely converted to Form CS2"
"O=C(O)CNC(=O)c1ncc(-c2cccc(Cl)c2)cc1O [Form B, {[5-(3-chlorophenyl)-3-hydroxypyridine-2-carbonyl]amino} acetic acid]",,,,,,,,conversion in slurry at high temperature [8]: may convert to Form A
